{"source": "patent US5246931A", "about": "“Carbocyclic nucleoside analogs” (priority 1991, dated 1993)", "key": {"[1]": {"tested_on": "Herpes simplex type 2 (HSV-2) strain MS", "test": "CPE inhibition assay, HSV-2 (MS) in Vero cells"}, "[2]": {"tested_on": "Herpes simplex type 1 (HSV-1) strain E-377", "test": "CPE inhibition assay, HSV-1 (E-377) in Vero cells", "conditions": "for VR (virus rating): HSV-1 (E-377), Vero"}, "[3]": {"tested_on": "duck hepatitis B virus (DHBV)", "test": "Efficacy against hepatitis B virus in vivo in ducklings", "design": "species or system Pekino ducklings", "conditions": "for Serum DHBV DNA: after treatment (days 10-17)", "protocol": "F. Evaluation of Compounds for Efficacy Against Hepatitis B Virus In Vivo in Ducklings\nThe test method is an adaptation of the method of Smee, et al., Antimicrob. Agents Chemotherap. 27 277 (1985). The serum level of duck hepatitis B virus (DHBV) DNA was monitored in 6 infected Pekino ducklings from age 6 days to age 27 days. Four ducklings were treated with 70 mg/kg/day IP, b.i.d. of the test compound as a 3 mg/ml solution in 0.9% aqueous NaCl on days 10-17. Two control ducklings were treated with 23 ml/kg/day IP, b.i.d. of 0.9% aqueous NaCl on days 10-17. The level of DHBV DNA in the duckling serum was measured daily."}, "[4]": {"tested_on": "Herpesvirus 1 (strain 123)", "test": "In vivo activity against Herpesvirus 1 in mice (intraperitoneal challenge)", "design": "species or system Swiss mice (CD-1)", "protocol": "E. Evaluation of Compounds for In Vivo Activity Against Herpesvirus 1 in Mice\n(§1) Four-week-old female outbred Swiss mice (CD-1, VAF+, Charles River Labs) were housed 5 per Microisolator® cage. Feed and water were supplied ad libitum. Fifteen mice were randomly assigned to each of the following treatment groups:\n(§2) Test compounds were diluted in 0.4% caboxymethylcellulose (CMC) prepared in phosphate buffered saline (PBS) at aconcentrations consistent with dosing at 0.1 ml per 10 g of body weight. Compounds were administered subcutaneously once daily for a total of 7 doses. Five mice in each treatment group served as uninfected toxicity controls. The remaining ten mice in each group were challenged intraperitoneally with an LD90 dose of the twelfth in vivo passage of Herpesvirus 1 (strain 123). Virus challenge was administered two hours after the first dose of compound was given. Mortality was monitored daily for 21 days. The mortality rates, average day of death, geometric mean time to death and virus rating were calculated for each treatment group."}, "HSV-2": {"tested_on": "HSV-2", "test": "Plaque reduction in Vero cells, HSV-2", "type": "cell-based, Herpes simplex virus type 2", "conditions": "Human alphaherpesvirus 2, HSV-2, Vero, read-out: MIC50", "protocol": "(§3) A-2. Alternate Method for Evaluation of Compounds for Activity Against Herpes Simplex Virus Types 1 and 2\n(§4) Confluent Vero cell monolayers were infected with a dilution of stock virus which yielded approximately 100 plaque forming units (pfu) per well. After the adsorption period, the infected cell monolayers were treated in duplicate with serial dilutions of the test compound. Duplicate cell controls containing medium alone and virus controls containing medium and virus were run simultaneously with the test compound. After incubation for 3 to 4 days to allow for the development of visible, discrete plaques in the untreated, virus infected control cultures, the monolayers were fixed with formaldehyde and stained with crystal violet. Plaques visible to the unaided eye were counted and the mean number of plaques in the duplicate wells for each compound concentration tested and for the untreated, virus infected controls were determined. The concentration of test compound which reduced by 50% the mean number of plaques in the untreated, virus infected control cultures was then determined and expressed as the ID50."}, "[5]": {"tested_on": "Varicella-Zoster Virus (clinical isolate DM625)", "test": "microbe, parasite or virus in culture", "type": "cell-based", "conditions": "Human alphaherpesvirus 3, Fibroblast, 120 h; read-out: MIC50"}, "[6]": {"tested_on": "human foreskin fibroblasts (HFF)", "test": "MTT cytotoxicity assay in human foreskin fibroblasts"}, "HSV-1 (123)": {"tested_on": "HSV-1 (123)", "test": "Plaque reduction in Vero cells, HSV-1 (123)", "type": "cell-based, Herpes simplex virus type 1", "conditions": "Human alphaherpesvirus 1, read-out: MIC50", "protocol": "as §3, §4"}, "[7]": {"test": "Toxicity in uninfected mice", "type": "in vivo, Swiss mice (CD-1)", "conditions": "subcutaneous once daily, 7 doses", "protocol": "as §1, §2"}, "HSV-1 (E-377)": {"tested_on": "HSV-1 (E-377)", "test": "Plaque reduction in Vero cells, HSV-1 (E-377)", "type": "cell-based, Herpes simplex virus type 1", "conditions": "Human alphaherpesvirus 1, read-out: MIC50", "protocol": "as §3, §4"}, "[8]": {"tested_on": "African green monkey kidney (Vero) cells", "test": "Drug cytotoxicity in Vero host cells (CPE assay)", "conditions": "Vero"}, "[9]": {"tested_on": "Herpes simplex type 2 (HSV-2) strain MS", "conditions": "monkey, vero cells"}, "[10]": {"test": "Drug cytotoxicity in Vero host cells (CPE assay)", "conditions": "monkey, vero cells"}, "[11]": {"tested_on": "Herpes simplex type 1 (HSV-1) strain E-377", "conditions": "monkey, vero cells"}}, "note": "Where “and” joins values, the source holds several entries; their conditions need not be identical. Equal entries are not always repeated."}
{"smiles": "Nc1nc(Cl)c2ncn(C3CC(CO)C3CO)c2n1", "note": "(stereo not shown) [Example 1H, 3-(2'-Amino-6'-chloro-9'H-purin-9'-yl)-1,2-bis(hydroxymethyl)cyclobutane]", "values": [{"measurement": "VR (virus rating)", "setting": "[1]", "value": "0.6 and 0.5"}, {"measurement": "VR (virus rating)", "setting": "[2]", "value": 1.4}]}
{"smiles": "Nc1nc2c(ncn2C2CC(CO)C2CO)c(=O)[nH]1", "note": "(stereo not shown) [Example 1I, 9-(2',3'-Bis(hydroxymethyl)cyclobutyl)guanine]", "values": [{"measurement": "VR (virus rating)", "setting": "[1]", "value": "4.1 and 3.4"}, {"measurement": "Deaths of treated ducks", "setting": "[3]; DHBV-infected ducklings, 70 mg/kg/day IP b.i.d. on days 10-17", "value": "ducks 3 and 4 died on day 18 and day 26, respectively"}, {"measurement": "Serum DHBV DNA", "setting": "[3]; age 18 days, lines = ducks 1-4 in order", "value": "< 1", "unit": "ng/mL"}, {"measurement": "Serum DHBV DNA", "setting": "[3]; age 19 days, lines = ducks 1, 2, 4", "value": "< 1", "unit": "ng/mL"}, {"measurement": "Serum DHBV DNA", "setting": "[3]; age 20 days, lines = ducks 1, 2, 4", "value": "< 1", "unit": "ng/mL"}, {"measurement": "Serum DHBV DNA", "setting": "[3]; age 21 days, lines = ducks 1, 2, 4", "value": "< 1", "unit": "ng/mL"}, {"measurement": "VR (virus rating) = GMTD of experimental/GMTD of diluent treated control", "setting": "[4]; 3.2 mg/kg", "value": 1.3}, {"measurement": "VR (virus rating) = GMTD of experimental/GMTD of diluent treated control", "setting": "[4]; 10 mg/kg", "value": 1.6}, {"measurement": "VR (virus rating) = GMTD of experimental/GMTD of diluent treated control", "setting": "[4]; 32 mg/kg", "value": 2.5}, {"measurement": "IC50", "setting": "HSV-2", "value": 1, "unit": "µg/mL"}, {"measurement": "VR (virus rating)", "setting": "[2]", "value": "5.7 and 5.1"}, {"measurement": "IC50", "setting": "[5]", "value": 1.4, "unit": "µg/mL"}, {"measurement": "MTT Assay", "setting": "[6]; 3.2 ug/ml", "value": "79 % of control"}, {"measurement": "MTT Assay", "setting": "[6]; 10 ug/ml", "value": "76 % of control"}, {"measurement": "MTT Assay", "setting": "[6]; 32 ug/ml", "value": "72 % of control"}, {"measurement": "MTT Assay", "setting": "[6]; 100 ug/ml", "value": "62 % of control"}, {"measurement": "IC50", "setting": "HSV-1 (123)", "value": 1, "unit": "µg/mL"}, {"measurement": "No. Dead/No. Uninfected", "setting": "[7]; 3.2 mg/kg", "value": "0/5"}, {"measurement": "No. Dead/No. Uninfected", "setting": "[7]; 10 mg/kg", "value": "0/5"}, {"measurement": "No. Dead/No. Uninfected", "setting": "[7]; 32 mg/kg", "value": "0/3"}, {"measurement": "IC50", "setting": "HSV-1 (E-377)", "value": 0.5, "unit": "µg/mL"}]}
{"smiles": "Nc1ncnc2c1ncn2C1CC(CO)C1CO", "note": "(stereo not shown) [Example 4C, 9-(2',3'-Bis(hydroxymethyl)cyclobutyl)adenine]", "values": [{"measurement": "MTC: minimum drug concentration causing any cytotoxicity", "setting": "[8]; HSV-1 (E-377) assay", "value": 32, "unit": "µg/mL"}, {"measurement": "MTC: minimum drug concentration causing any cytotoxicity", "setting": "[8]; HSV-2 (MS) assay", "value": 100, "unit": "µg/mL"}, {"measurement": "VR (virus rating)", "setting": "[1]", "value": 1.8}, {"measurement": "TI: therapeutic index, minimum cytotoxic drug concentration / ID50", "setting": "[9]", "value": 5.5}]}
{"smiles": "Nc1nc2c(ncn2C2CC(CO)C2)c(=O)[nH]1", "note": "(stereo not shown) [Example 5G, 9-(3'-(Hydroxymethyl)cyclobutyl)guanine]", "values": [{"measurement": "MCC", "setting": "[10]", "value": "> 320", "unit": "µg/mL"}, {"measurement": "MTC: minimum drug concentration causing any cytotoxicity", "setting": "[8]; HSV-2 (MS) assay", "value": "> 320", "unit": "µg/mL"}, {"measurement": "TI: therapeutic index, minimum cytotoxic drug concentration / ID50", "setting": "[11]", "value": "> 2.2"}, {"measurement": "VR (virus rating)", "setting": "[1]", "value": 0.9}, {"measurement": "TI: therapeutic index, minimum cytotoxic drug concentration / ID50", "setting": "[9]", "value": "> 1.0"}, {"measurement": "VR (virus rating)", "setting": "[2]", "value": 2.1}, {"measurement": "IC50", "setting": "[2]; Human alphaherpesvirus 1, Vero, read-out: ID50: minimum drug concentration that inhibited the CPE by 50%", "value": 146, "unit": "µg/mL"}]}
{"smiles": "Nc1nc2c(ncn2C2CC(CO)C2O)c(=O)[nH]1", "note": "(stereo not shown) [Example 42P, 9-(2'-hydroxy-3'-hydroxymethyl-1'-cyclobutyl)guanine]", "values": [{"measurement": "IC50", "setting": "HSV-2", "value": 1, "unit": "µg/mL"}, {"measurement": "IC50", "setting": "HSV-1 (123)", "value": 3, "unit": "µg/mL"}, {"measurement": "IC50", "setting": "HSV-1 (E-377)", "value": 1, "unit": "µg/mL"}]}
